Reference: ChEMBL document CHEMBL1134170, “Securiosides A and B, novel acylated triterpene bisdesmosides with selective cytotoxic activity against M-CSF-stimulated macrophages” (Bioorg Med Chem Lett, 2001)
Activity calls are given as the source filed them. The rule behind the calls is not given here.

Legend:
Mus musculus = organism: Mus musculus; experiment: Cytotoxic activity against M-CSF-stimulated macrophages (from male mice); assay type: functional
Ovis aries = organism: Ovis aries; experiment: Ability to hemolyze sheep erythrocytes and induce change in macrophage morphology and DNA fragmentation at a concentration of 10 ug/mL; inactive; assay type: functional

In the case of `COc1ccc(/C=C/C(=O)O[C@H]2[C@H](O)[C@@H](O[C@H]3O[C@H](C)[C@@H](O[C@H]4OCC(O[C@H]5O[C@H](CO)[C@@H](O)[C@@H](O)[C@H]5O)C(O[C@H]5O[C@H](CO)[C@H](O)[C@@H](O)[C@H]5O)[C@H]4O)[C@@H](O)[C@@H]3O)[C@@H](OC(=O)[C@]34CCC(C)(C)C[C@H]3C3=CC[C@@H]5[C@@]6(C)C[C@H](O)[C@H](O[C@@H]7O[C@@H](CO)[C@@H](O)[C@H](O)[C@@H]7O)[C@@](C)(C(=O)O)C6CC[C@@]5(C)[C@]3(CO)CC4)O[C@@H]2C)cc1OC` (some centres undefined) [SECURIOSIDE B], the IC50 (Mus musculus) is reported as < 250 nM and the Hemolysis (Ovis aries) is reported as “inactive”.
In the case of `COc1ccc(/C=C/C(=O)O[C@H]2[C@@H](O[C@H]3O[C@H](COC(C)=O)[C@H](O)[C@H](O)[C@H]3O)[C@@H](O[C@H]3O[C@H](C)[C@@H](O[C@H]4OC[C@H](O)[C@H](O)[C@H]4O)[C@@H](O)[C@@H]3O)[C@H](OC(=O)[C@]34CCC(C)(C)C[C@H]3C3=CC[C@@H]5[C@@]6(C)C[C@H](O)[C@H](O[C@@H]7O[C@@H](CO)[C@@H](O)[C@H](O)[C@@H]7O)[C@@](C)(C(=O)O)C6CC[C@@]5(C)[C@]3(CO)CC4)O[C@@H]2C)cc1OC` (some centres undefined) [SECURIOSIDE A], the IC50 (Mus musculus) is reported as < 250 nM and the Hemolysis (Ovis aries) is reported as “inactive”.
